PubChem BioAssay AID330 (DTP/NCI, 2004)
Several values for one entry are separate records, joined by “and”; a condition that tells them apart may be missing. Equal values may be shown once. Inconclusive results and toxic doses are left out. Rule for the calls: active = survival T/C of 150% or more; inactive = T/C below 125% in these data. Square brackets hold non-standard residues; d marks the D form. Peptide text beside a SMILES is read from it. ξ: configuration not given here. ξPhe(4-N(CH2CH2Cl)2) = NC(Cc1ccc(N(CCCl)CCCl)cc1)C(=O)O

System: P388 leukemia ip, CD2F1 mice, survival T/C
Assay: NCI In Vivo Anticancer Drug Screen. Data for tumor model P388 Leukemia (intraperitoneal) in CD2F1 (CDF1) mice
Conditions: endpoint: median survival time, higher = longer survival
How it was run: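 Mice carrying the transplanted tumor received test compound or vehicle. Survival was recorded in each group, and the value is the treated-group measurement divided by that of the vehicle-treated control group.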

[1] = dose: 50.0 mg/kg/injection, schedule: Q01DX005 (ip), vehicle: Klucel (hydroxypropylcellulose) (HPC)
[2] = dose: 50.0 mg/kg/injection, schedule: Q01DX005 (ip), vehicle: saline with Tween-80
[3] = dose: 100.0 mg/kg/injection, schedule: Q01DX005 (ip), vehicle: saline with Tween-80
[4] = dose: 200.0 mg/kg/injection, schedule: Q01DX005 (ip), vehicle: saline with Tween-80
[5] = dose: 6.25 mg/kg/injection, schedule: Q01DX009 (ip), vehicle: saline
[6] = dose: 12.5 mg/kg/injection, schedule: Q01DX009 (ip), vehicle: saline
[7] = dose: 25.0 mg/kg/injection, schedule: Q01DX009 (ip), vehicle: saline
[8] = dose: 50.0 mg/kg/injection, schedule: Q01DX009 (ip), vehicle: saline
[9] = dose: 100.0 mg/kg/injection, schedule: Q01DX009 (ip), vehicle: saline
[10] = dose: 200.0 mg/kg/injection, schedule: Q01DX009 (ip), vehicle: saline
[11] = dose: 100.0 mg/kg/injection, schedule: Q01DX009 (ip), vehicle: saline with Tween-80
[12] = dose: 200.0 mg/kg/injection, schedule: Q01DX009 (ip), vehicle: saline with Tween-80
[13] = dose: 400.0 mg/kg/injection, schedule: Q01DX009 (ip), vehicle: saline with Tween-80
[14] = dose: 12.5 mg/kg/injection, schedule: Q01DX009 (ip), vehicle: saline with Tween-80
[15] = dose: 25.0 mg/kg/injection, schedule: Q01DX009 (ip), vehicle: saline with Tween-80
[16] = dose: 50.0 mg/kg/injection, schedule: Q01DX009 (ip), vehicle: saline with Tween-80
[17] = dose: 6.25 mg/kg/injection, schedule: Q01DX009 (ip), vehicle: saline with Tween-80

Measured: T/C

COc1c2occc2c(N=Cc2ccccn2)c2ccc(=O)oc12
inactive: dose: 6.25 mg/kg/injection, schedule: Q01DX005 (ip), vehicle: Klucel (hydroxypropylcellulose) (HPC) 97 % of control | dose: 12.5 mg/kg/injection, schedule: Q01DX005 (ip), vehicle: Klucel (hydroxypropylcellulose) (HPC) 97 % of control | dose: 25.0 mg/kg/injection, schedule: Q01DX005 (ip), vehicle: Klucel (hydroxypropylcellulose) (HPC) 95 % of control | [1] 90 % of control

O=C(OCc1ccccc1)C(Cc1ccccc1)NC(=O)C(Cc1ccc(O)cc1)N(C(=O)OCc1ccccc1)C(=O)OCc1ccccc1 (stereo not given)
inactive: [2] 103 % of control | [3] 100 % of control | [4] 91 % of control

CCOC(=O)NNC(=O)Nc1ccc(O[Si](C)(C)C)cc1
inactive: dose: 60.0 mg/kg/injection, schedule: Q01DX005 (ip), vehicle: saline with Tween-80 109 % of control | dose: 120.0 mg/kg/injection, schedule: Q01DX005 (ip), vehicle: saline with Tween-80 102 % of control | dose: 240.0 mg/kg/injection, schedule: Q01DX005 (ip), vehicle: saline with Tween-80 100 % of control

CC(C)(C)c1ccc(S(=O)(=O)C[CH2][Sn]([CH3])([CH3])[CH3])cc1
inactive: [5] 104 % of control | [6] 87 % of control

CCOC(=O)c1[nH]cc(C)c1-c1ccc(OCc2ccccc2)cc1
inactive: dose: 100.0 mg/kg/injection, schedule: Q01DX001 (ip), vehicle: saline with Tween-80 112 % of control | dose: 200.0 mg/kg/injection, schedule: Q01DX001 (ip), vehicle: saline with Tween-80 94 % of control | dose: 400.0 mg/kg/injection, schedule: Q01DX001 (ip), vehicle: saline with Tween-80 103 % of control

O=C(Nc1ccc(NC(=O)Nc2ccc(C3=NCCN3)cc2)cc1)Nc1ccc(C2=NCCN2)cc1
inactive: dose: 110.0 mg/kg/injection, schedule: Q01DX010 (ip), vehicle: saline 118 % of control | dose: 165.0 mg/kg/injection, schedule: Q01DX010 (ip), vehicle: saline 118 % of control

O=CCSC(=S)NNc1ccccc1
inactive: [7] 103 % of control | [8] 90 % of control | [9] 105 % of control | [10] 96 % of control

Cc1ccc(/C=C2\SC(=S)N(C3CC3)C2=O)cc1
inactive: [1] 97 % of control | dose: 100.0 mg/kg/injection, schedule: Q01DX005 (ip), vehicle: Klucel (hydroxypropylcellulose) (HPC) 95 % of control | dose: 200.0 mg/kg/injection, schedule: Q01DX005 (ip), vehicle: Klucel (hydroxypropylcellulose) (HPC) 93 % of control

O=C1c2ccccc2C(=O)N1c1ccc(Nc2nc(Nc3ccc(N4C(=O)c5ccccc5C4=O)cc3)nc(N(C3CCCCC3)C3CCCCC3)n2)cc1
inactive: [2] 94 % of control | [3] 87 % of control

Cc1ccc(S(=O)(=O)O/N=C(/C#N)c2ccccc2)cc1
inactive: [8] 101 % of control | [11] 102 % of control | [9] 99 % of control | [12] 101 % of control | [10] 105 % of control | [13] 97 % of control

CCC[CH2][Sn]([N]=C=S)([N]=C=S)[N]=C=S.O=P(c1ccccc1)(c1ccccc1)c1ccccc1.O=P(c1ccccc1)(c1ccccc1)c1ccccc1
inactive: dose: 100.0 mg/kg/injection, schedule: Q04DX003 (ip), vehicle: saline 98 % of control | dose: 200.0 mg/kg/injection, schedule: Q04DX003 (ip), vehicle: saline 100 % of control | dose: 400.0 mg/kg/injection, schedule: Q04DX003 (ip), vehicle: saline 99 % of control

CSC(=CC(=O)c1ccccc1)SC
inactive: [14] 104 % of control | [15] 105 % of control | [16] 114 % of control | [11] 110 % of control

N#CC1(c2ccccc2)OC1(C#N)c1ccccc1 (stereo not given)
inactive: [14] 96 % of control | [15] 101 % of control | dose: 37.5 mg/kg/injection, schedule: Q01DX009 (ip), vehicle: acetone 96 % of control | [16] 93 % of control | dose: 75.0 mg/kg/injection, schedule: Q01DX009 (ip), vehicle: acetone 95 % of control | dose: 150.0 mg/kg/injection, schedule: Q01DX009 (ip), vehicle: acetone 113 % of control

COC(=O)C1C(O)C(C)C(O)C(C)/C=C\C=C(C)C(=O)Nc2c(C)c(OC(C)=O)c3c(c2O)C(=O)C(C)=C2OCOC(=C23)C(C)=CC(C)(O)C(O)C(C)C1O (stereo not given)
inactive: [7] 107 % of control | [8] 107 % of control | [9] 107 % of control | [10] 89 % of control

CN(C)c1nc(N(C)C)n2c(-c3ccccc3[N+](=O)[O-])nnc2n1
inactive: [16] 99 % of control | [11] 102 % of control | [12] 99 % of control

Clc1ccc(C[n+]2ccccc2)cc1Cl
inactive: dose: 5.0 mg/kg/injection, schedule: Q04DX003 (ip), vehicle: saline 120 % of control | dose: 10.0 mg/kg/injection, schedule: Q04DX003 (ip), vehicle: saline 110 % of control | dose: 20.0 mg/kg/injection, schedule: Q04DX003 (ip), vehicle: saline 110 % of control

CCCCNC(=O)NC1OC(CO)C(O)C1O (stereo not given)
inactive: dose: 50.0 mg/kg/injection, schedule: Q01DX005 (ip), vehicle: saline 98 % of control | dose: 100.0 mg/kg/injection, schedule: Q01DX005 (ip), vehicle: saline 97 % of control | dose: 200.0 mg/kg/injection, schedule: Q01DX005 (ip), vehicle: saline 100 % of control

Fc1ccccc1C(Nc1cnccn1)Nc1cnccn1
inactive: dose: 12.5 mg/kg/injection, schedule: Q01DX005 (ip), vehicle: saline with Tween-80 96 % of control | dose: 25.0 mg/kg/injection, schedule: Q01DX005 (ip), vehicle: saline with Tween-80 102 % of control | [2] 102 % of control and 109 % of control | [3] 109 % of control | [4] 111 % of control

c1ccc2c(c1)CCc1ccccc1C2NC1=NCCSC1
inactive: [16] 86 % of control | [11] 93 % of control

CCCC[N+]1(CC)CCCCC1
inactive: dose: 3.12 mg/kg/injection, schedule: Q01DX009 (ip), vehicle: saline 97 % of control | [5] 113 % of control | [6] 106 % of control

CO[C@@H]1[C@H](O)CC[C@]2(CO2)[C@H]1[C@@]1(C)O[C@@H]1CC=C(C)C
inactive: dose: 3.13 mg/kg/injection, schedule: Q01DX009 (ip), vehicle: saline with Tween-80 99 % of control and 120 % of control | [17] 99 % of control and 116 % of control | [14] 99 % of control and 106 % of control | [15] 108 % of control and 120 % of control | dose: 33.3 mg/kg/injection, schedule: Q01DX009 (ip), vehicle: saline with Tween-80 99 % of control

Clc1ccccc1OCC1CO1 (stereo not given)
inactive: [11] 100 % of control | [12] 109 % of control | [13] 109 % of control

NC(CO)C(=O)NC(CCC(=O)O)C(=O)NC(CO)C(=O)NC(CCC(=O)O)C(=O)NC(Cc1ccc(N(CCCl)CCCl)cc1)C(=O)O (stereo not given) (H-SESE[ξPhe(4-N(CH2CH2Cl)2)]-OH; configuration not given here)
inactive: dose: 5.0 mg/kg/injection, schedule: Q04DX003 (ip), vehicle: water 96 % of control | dose: 10.0 mg/kg/injection, schedule: Q04DX003 (ip), vehicle: water 98 % of control | dose: 20.0 mg/kg/injection, schedule: Q04DX003 (ip), vehicle: water 101 % of control | dose: 40.0 mg/kg/injection, schedule: Q04DX003 (ip), vehicle: water 102 % of control and 111 % of control | dose: 80.0 mg/kg/injection, schedule: Q04DX003 (ip), vehicle: water 117 % of control

NC(=O)c1nc[nH]c1F
inactive: [17] 102 % of control | [14] 102 % of control | [15] 103 % of control | [16] 104 % of control
